Experiments:
Type in all cases: cell membranes
D(2) dopamine receptor [1] = biological target: T1, D(2) dopamine receptor (Rattus norvegicus, UniProt P61169); test: Binding affinity against dopamine D2 receptor in rat brain synaptic membrane using [3H]-spiperone as radioligand
[2] = biological target: T2, Serotonin 3 (5-HT3) receptor (Rattus norvegicus, UniProt P35563+Q9JJ16); test: Binding affinity against 5-hydroxytryptamine 3 receptor in rat cortical membrane using [3H]GR-65630 as radioligand
T2 sequence (P35563 whole entry): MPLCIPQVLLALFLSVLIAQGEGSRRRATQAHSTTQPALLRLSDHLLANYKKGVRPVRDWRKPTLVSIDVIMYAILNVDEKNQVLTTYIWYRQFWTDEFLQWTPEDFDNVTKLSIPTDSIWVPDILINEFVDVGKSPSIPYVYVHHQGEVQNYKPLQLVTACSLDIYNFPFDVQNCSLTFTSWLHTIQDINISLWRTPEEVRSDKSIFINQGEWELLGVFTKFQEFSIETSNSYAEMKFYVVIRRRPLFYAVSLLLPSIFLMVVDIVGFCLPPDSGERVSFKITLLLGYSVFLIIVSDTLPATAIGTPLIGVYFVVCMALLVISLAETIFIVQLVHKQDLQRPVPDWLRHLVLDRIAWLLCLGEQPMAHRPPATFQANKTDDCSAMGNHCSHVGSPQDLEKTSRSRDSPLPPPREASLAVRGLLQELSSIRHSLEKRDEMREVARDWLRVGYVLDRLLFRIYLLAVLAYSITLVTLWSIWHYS
T2 sequence (Q9JJ16 whole entry): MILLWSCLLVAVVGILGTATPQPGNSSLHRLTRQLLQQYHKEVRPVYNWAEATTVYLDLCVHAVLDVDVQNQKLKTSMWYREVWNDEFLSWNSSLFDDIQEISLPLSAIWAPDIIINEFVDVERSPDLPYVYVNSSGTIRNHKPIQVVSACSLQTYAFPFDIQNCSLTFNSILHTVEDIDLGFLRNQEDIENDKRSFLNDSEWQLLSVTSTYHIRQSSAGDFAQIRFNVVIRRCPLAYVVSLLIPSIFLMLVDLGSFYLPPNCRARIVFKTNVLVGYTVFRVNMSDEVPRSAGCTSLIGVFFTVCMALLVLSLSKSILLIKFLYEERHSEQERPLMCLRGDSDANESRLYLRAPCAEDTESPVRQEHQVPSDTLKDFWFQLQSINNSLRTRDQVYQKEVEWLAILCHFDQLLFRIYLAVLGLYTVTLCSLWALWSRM

D(2) dopamine receptor [3] = biological target: T1, D(2) dopamine receptor; test: Compound was tested for binding affinity against Dopamine receptor D2 in rat brain synaptic membrane using [3H]-spiperone as radioligand

T1 sequence (P61169 whole entry): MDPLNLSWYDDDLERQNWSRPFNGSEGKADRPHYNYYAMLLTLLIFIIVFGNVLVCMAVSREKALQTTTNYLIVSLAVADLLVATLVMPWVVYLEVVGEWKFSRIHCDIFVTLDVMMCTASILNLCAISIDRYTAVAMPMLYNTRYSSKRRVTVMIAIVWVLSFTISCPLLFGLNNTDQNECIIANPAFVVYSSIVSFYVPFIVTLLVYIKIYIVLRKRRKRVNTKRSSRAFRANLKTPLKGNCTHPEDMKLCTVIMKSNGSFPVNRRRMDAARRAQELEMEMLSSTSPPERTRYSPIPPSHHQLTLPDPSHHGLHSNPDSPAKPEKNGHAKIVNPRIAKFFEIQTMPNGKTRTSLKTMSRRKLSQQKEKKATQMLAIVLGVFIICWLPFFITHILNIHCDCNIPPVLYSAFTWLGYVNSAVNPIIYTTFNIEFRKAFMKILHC

## Cc1nccn1CC1CCc2c(c3ccccc3n2C)C1=O (stereo unspecified) [ONDANSETRON]
D(2) dopamine receptor [1]
  IC50: > 1000 nM

## CCNc1cc(OC)c(C(=O)NC2CN(C)CCN(CC)C2)cc1Cl (stereo unspecified)
D(2) dopamine receptor [1]
  IC50: 181 nM
[2]
  IC50: 1.9 nM

## CCCN1CCCCC(NC(=O)c2cc(Cl)c(N)cc2OC)C1 (stereo unspecified)
D(2) dopamine receptor [1]
  IC50: 57 nM
[2]
  IC50: 37 nM

## CCN1CCCC[C@H](NC(=O)c2cc(Cl)c(N)cc2OC)C1
D(2) dopamine receptor [1]
  IC50: > 1000 nM
[2]
  IC50: 10 nM

## CCN1CCCCC(NC(=O)c2cc(Cl)c(N)cc2OC)C1 (stereo unspecified)
D(2) dopamine receptor [1]
  IC50: 39 nM
[2]
  IC50: 33 nM

## COc1cc(N)c(Cl)cc1C(=O)NC1CCCCN(C(C)C)C1 (stereo unspecified)
D(2) dopamine receptor [1]
  IC50: 87 nM
[2]
  IC50: 640 nM

## CCN1CCCC[C@H](NC(=O)c2cc(Cl)c(NC)cc2OC)C1
D(2) dopamine receptor [1]
  IC50: 367 nM
[2]
  IC50: 4.5 nM

## COc1cc(N)c(Cl)cc1C(=O)NC1CN(C)CCN(C)C1
D(2) dopamine receptor [3]
  IC50: > 1000 nM
[2]
  IC50: 9.6 nM

## CCN1CCCC[C@@H](NC(=O)c2cc(Cl)c(NC)cc2OC)C1
D(2) dopamine receptor [1]
  IC50: 4.5 nM
[2]
  IC50: 97 nM

## CCN1CCCC[C@@H](NC(=O)c2cc(Cl)c(N)cc2OC)C1
D(2) dopamine receptor [1]
  IC50: 19 nM
[2]
  IC50: 134 nM

## COc1cc(N)c(Cl)cc1C(=O)NC1CCCCN(C)C1 (stereo unspecified)
[2]
  IC50: 36 nM

## CCN1CCN(C)C[C@H](NC(=O)c2cc(Cl)c(NC)cc2OC)C1
D(2) dopamine receptor [1]
  IC50: 320 nM
[2]
  IC50: 1.5 nM

## CCCN1CCN(C)CC(NC(=O)c2cc(Cl)c(N)cc2OC)C1 (stereo unspecified)
D(2) dopamine receptor [1]
  IC50: 218 nM
[2]
  IC50: 24 nM

## CCN1CCN(C)C[C@@H](NC(=O)c2cc(Cl)c(N)cc2OC)C1
D(2) dopamine receptor [1]
  IC50: 87 nM
[2]
  IC50: 12 nM

## CCN1CCN(C)CC(NC(=O)c2cc(Cl)c(N)cc2OC)C1 (stereo unspecified)
D(2) dopamine receptor [1]
  IC50: 127 nM
[2]
  IC50: 8.5 nM

## CCN1CCCCC(NC(=O)c2cc(Cl)c(NC)cc2OC)C1 (stereo unspecified)
D(2) dopamine receptor [1]
  IC50: 11 nM
[2]
  IC50: 6.6 nM

## CCNc1cc(OC)c(C(=O)NC2CCCCN(CC)C2)cc1Cl (stereo unspecified)
D(2) dopamine receptor [1]
  IC50: 25 nM
[2]
  IC50: 50 nM

## CCN1CCN(C)C[C@H](NC(=O)c2cc(Cl)c(N)cc2OC)C1
D(2) dopamine receptor [1]
  IC50: 517 nM
[2]
  IC50: 7 nM

## CCN1CCN(C)CC(NC(=O)c2cc(Cl)c(NC)cc2OC)C1 (stereo unspecified)
D(2) dopamine receptor [1]
  IC50: 61 nM
[2]
  IC50: 4.8 nM
